Molecules are shown by their SMILES.

For the test, the target named is T1, human PAR4 (Homo sapiens, UniProt Q96RI0).
T1 construct: expressed in transfected cells; host or cells: HEK293 PAR4 Clone 1.2A (BMS Arctic ID 383940)
T1 sequence (Q96RI0 18-385): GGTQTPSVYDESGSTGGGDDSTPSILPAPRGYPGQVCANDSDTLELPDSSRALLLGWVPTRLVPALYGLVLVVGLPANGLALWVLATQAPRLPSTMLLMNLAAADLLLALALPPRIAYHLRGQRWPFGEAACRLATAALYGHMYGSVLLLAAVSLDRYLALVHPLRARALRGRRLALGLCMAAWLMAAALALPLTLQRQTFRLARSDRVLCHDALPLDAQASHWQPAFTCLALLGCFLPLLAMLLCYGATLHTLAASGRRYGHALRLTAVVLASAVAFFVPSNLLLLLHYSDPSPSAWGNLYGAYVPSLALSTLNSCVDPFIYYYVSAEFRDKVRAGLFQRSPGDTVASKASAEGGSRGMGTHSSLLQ
Put plainly: PAR4 FLIPR assay: antagonism of agonist-peptide-induced calcium mobilization in PAR4-expressing HEK293 cells. It is filed as cell-based. To be noted: H-Ala-Phe(4-F)-[…]NH2-induced intracellular calcium mobilization, 11-point curves.

As to `COc1cnc2c(-c3nc4cc(F)c(O[C@@H](C)[C@@H](C)OC(=O)Nc5ccc6[nH]c(=O)oc6c5)cc4s3)cc(C)cc2n1` [Example 406, (2R,3S)-3-((5-fluoro-2-(2-methoxy-7-methylquinoxalin-5-yl)benzo[d]thiazol-6-yl)oxy)butan-2-yl (2-oxo-2,3-dihydrobenzo[d]oxazol-6-yl)carbamate], the IC50 came out at 3.5 nM. For `COc1cnc2c(-c3nc4cc(F)c(O[C@@H](C)[C@@H](C)OC(=O)Nc5cnc(C)cn5)cc4s3)cc(C)cc2n1` [Example 417, (2R,3S)-3-((5-fluoro-2-(2-methoxy-7-methylquinoxalin-5-yl)benzo[d]thiazol-6-yl)oxy)butan-2-yl (5-methylpyrazin-2-yl)carbamate], the IC50 was found to be 11 nM. Then `COc1cnc2c(-c3nc4cc(F)c(OC[C@@H](C)OC(=O)Nc5ccncc5)nc4s3)cc(C)cc2n1` [Example 680, (R)-1-((6-fluoro-2-(2-methoxy-7-methylquinoxalin-5-yl)thiazolo[5,4-b]pyridin-5-yl)oxy) propan-2-yl pyridin-4-ylcarbamate], with 0.8 nM; and `COc1cnc2c(-c3nc4cc(F)c(O[C@@H](C)[C@@H](C)OC(=O)Nc5ccnc(OCC(C)(C)O)c5)cc4s3)cc(C)cc2n1` [Example 562, (2R,3S)-3-((5-fluoro-2-(2-methoxy-7-methylquinoxalin-5-yl)benzo[d]thiazol-6-yl)oxy)butan-2-yl (2-(2-hydroxy-2-methylpropoxy)pyridin-4-yl)carbamate], with 1.6 nM; and `COc1cnc2c(-c3nc4cc(F)c(OC[C@@H](C)OC(=O)Nc5ccnc(OCCO)c5)nc4s3)cc(C)cc2n1` [Example 697, (R)-1-((6-fluoro-2-(2-methoxy-7-methylquinoxalin-5-yl)thiazolo[5,4-b]pyridin-5-yl)oxy) propan-2-yl (2-(2-hydroxyethoxy)pyridin-4-yl)carbamate], with 2.9 nM. Then `COc1cnc2c(-c3nc4cc(F)c(O[C@@H](C)[C@@H](C)OC(=O)Nc5ccc(C(F)(F)F)nc5)cc4s3)cc(Cl)cc2c1` [Example 783, (2R,3S)-3-((2-(6-chloro-3-methoxyquinolin-8-yl)-5-fluorobenzo[d]thiazol-6-yl)oxy)butan-2-yl (6-(trifluoromethyl)pyridin-3-yl)carbamate], with 4.2 nM.

Turning to `COc1cc(C(O)c2nccs2)c2nc(-c3cc(C)cc4nc(OC)cnc34)sc2c1` (stereo not shown) [Example 673, (6-methoxy-2-(2-methoxy-7-methylquinoxalin-5-yl)benzo[d]thiazol-4-yl)(thiazol-2-yl)methanol], the 50% inhibitory concentration (IC50) is 39 nM. Then `COc1cnc2c(-c3nc4c(Cl)c(F)c(OCCOC(=O)Nc5cccnc5)cc4s3)cc(C)cc2n1` [Example 331, 2-((4-chloro-5-fluoro-2-(2-methoxy-7-methylquinoxalin-5-yl)benzo[d]thiazol-6-yl)oxy)ethyl pyridin-3-ylcarbamate], with 9.2 nM. The same measure for `COc1cnc2c(-c3nc4c(Cl)c(F)c(OCCNC(=O)Nc5cccnc5)cc4s3)cc(C)cc2n1` [Example 519, 1-(2-((4-chloro-5-fluoro-2-(2-methoxy-7-methylquinoxalin-5-yl)benzo[d]thiazol-6-yl)oxy)ethyl)-3-(pyridin-3-yl)urea]: 16 nM; for `COc1cnc2c(-c3nc4cc(F)c(O[C@@H](C)[C@@H](C)OC(=O)Nc5cnc(NC(=O)c6ccc(F)c(Cl)c6)nc5)cc4s3)cc(C)cc2n1` [Example 604, (2R,3S)-3-((5-fluoro-2-(2-methoxy-7-methylquinoxalin-5-yl)benzo[d]thiazol-6-yl)oxy)butan-2-yl (2-(3-chloro-4-fluorobenzamido)pyrimidin-5-yl)carbamate]: 17 nM; for `COc1cnc2c(-c3nc4cc(F)c(O[C@@H](C)[C@@H](C)OC(=O)Nc5cnc(O[C@@H](C)CO)nc5)nc4s3)cc(C)cc2n1` [Example 724, (2R,3S)-3-((6-fluoro-2-(2-methoxy-7-methylquinoxalin-5-yl)thiazolo[5,4-b]pyridin-5-yl)oxy)butan-2-yl (2-(((S)-1-hydroxypropan-2-yl)oxy)pyrimidin-5-yl)carbamate]: 2.1 nM. Regarding `Cc1ccc2sc(-c3cc(C)cc4nc(OC(F)F)cnc34)nc2c1` [Example 68, 2-(2-(difluoromethoxy)-7-methylquinoxalin-5-yl)-5-methylbenzo[d]thiazole], the IC50 is 120 nM. Then `COCc1cnc2c(-c3nc4c(C(O)C(C)(C)C)cc(OC)cc4s3)cc(C)cc2n1` (stereo not shown) [Example 628, 1-(6-methoxy-2-(2-(methoxymethyl)-7-methylquinoxalin-5-yl)benzo[d]thiazol-4-yl)-2,2-dimethylpropan-1-ol], with 1.4 nM; and `COc1cnc2c(-c3nc4c(C)cc(OCCNS(=O)(=O)c5ccc(F)cc5)cc4s3)cc(Cl)cc2n1` [Example 199, N-(2-((2-(7-chloro-2-methoxyquinoxalin-5-yl)-4-methylbenzo[d]thiazol-6-yl)oxy)ethyl)-4-fluorobenzenesulfonamide], with 2.5 nM.

In the case of `COc1cnc2c(-c3nc4cc(F)c(O[C@@H](C)[C@@H](C)OC(=O)Nc5ccnc(OCCO)c5)nc4s3)cc(Cl)cc2c1` [Example 780, (2R,3S)-3-((2-(6-chloro-3-methoxyquinolin-8-yl)-6-fluorothiazolo[5,4-b]pyridin-5-yl)oxy) butan-2-yl (2-(2-hydroxyethoxy)pyridin-4-yl)carbamate], the IC50 stood at 5 nM. Consider `COCc1cnc2c(-c3nc4c(C)c(F)c(OC)cc4s3)cc(C)cc2n1` [Example 295, 5-fluoro-6-methoxy-2-(2-(methoxymethyl)-7-methylquinoxalin-5-yl)-4-methylbenzo[d]thiazole], for which the IC50 is 0.7 nM. The same measure for `COc1cnc2c(-c3nc4cc(F)c(O[C@@H](C)[C@@H](C)OC(=O)Nc5ccc(N6CCOCC6)nc5)cc4s3)cc(C)cc2n1` [Example 603, (2R,3S)-3-((5-fluoro-2-(2-methoxy-7-methylquinoxalin-5-yl)benzo[d]thiazol-6-yl)oxy)butan-2-yl (6-morpholinopyridin-3-yl)carbamate]: 2.1 nM; for `COc1ccc(NC(=O)OCCOc2cc(C)c3nc(-c4cc(CO)cc5nc(OC)cnc45)sc3c2)cn1` [Example 252, 2-((2-(7-(hydroxymethyl)-2-methoxyquinoxalin-5-yl)-4-methylbenzo[d]thiazol-6-yl)oxy)ethyl (6-methoxypyridin-3-yl)carbamate]: 0.5 nM; for `COc1cnc2c(-c3nc4cc(F)c(OC[C@@H](C)OC(=O)Nc5cnc(O[C@@H](C)CO)nc5)nc4s3)cc(C)cc2n1` [Example 693, (R)-1-((6-fluoro-2-(2-methoxy-7-methylquinoxalin-5-yl)thiazolo[5,4-b]pyridin-5-yl)oxy) propan-2-yl (2-(((S)-1-hydroxypropan-2-yl)oxy)pyrimidin-5-yl)carbamate]: 1.3 nM. Turning to `COc1cnc2c(-c3nc4cc(F)c(O[C@@H](C)[C@@H](C)OC(=O)Nc5cnc(C)nc5)nc4s3)cc(Cl)cc2c1` [Example 769, (2R,3S)-3-((2-(6-chloro-3-methoxyquinolin-8-yl)-6-fluorothiazolo[5,4-b]pyridin-5-yl)oxy)butan-2-yl (2-methylpyrimidin-5-yl)carbamate], the IC50 was found to be 3.2 nM. Then `COCc1cnc2c(-c3nc4cc(F)c(OC)cc4s3)cc(C)cc2n1` [Example 277, 5-fluoro-6-methoxy-2-(2-(methoxymethyl)-7-methylquinoxalin-5-yl)benzo[d]thiazole], with 9 nM; and `COCc1cnc2c(-c3nc4c(C)cccc4s3)cc(C)cc2n1` [Example 261, 2-(2-(methoxymethyl)-7-methylquinoxalin-5-yl)-4-methylbenzo[d]thiazole], with 1.2 nM; and `COCc1cnc2c(-c3nc4cc(F)c(OC(C)C)cc4s3)cc(C)cc2n1` [Example 329, 5-fluoro-6-isopropoxy-2-(2-(methoxymethyl)-7-methylquinoxalin-5-yl)benzo[d]thiazole], with 1.1 nM. As for `COc1cnc2c(-c3nc4c(C)cc(OCCNS(=O)(=O)c5ccc(F)cc5)cc4s3)cc(C(O)CO)cc2n1` (stereo not shown) [Example 236, N-(2-((2-(7-(1,2-dihydroxyethyl)-2-methoxyquinoxalin-5-yl)-4-methylbenzo[d]thiazol-6-yl)oxy)ethyl)-4-fluorobenzenesulfonamide], the IC50 came to 140 nM. In the case of `COc1cnc2c(-c3nc4cc(F)c(OC)nc4s3)cc(C)cc2n1` [Example 182, 6-fluoro-5-methoxy-2-(2-methoxy-7-methylquinoxalin-5-yl)thiazolo[5,4-b]pyridine], the IC50 came to 22 nM.

For the molecule `C=C(C)c1cc(-c2nc3c(C)cc(OCCNS(=O)(=O)c4ccc(F)cc4)cc3s2)c2ncc(OC)nc2c1` [Example 241, 4-fluoro-N-(2-((2-(2-methoxy-7-(prop-1-en-2-yl)quinoxalin-5-yl)-4-methylbenzo[d]thiazol-6-yl)oxy)ethyl)benzenesulfonamide], the IC50 was determined as 5.4 nM. Then `COc1cnc2c(-c3nc4c(F)c(F)c(OC)cc4s3)cc(Cl)cc2n1` [Example 214, 2-(7-chloro-2-methoxyquinoxalin-5-yl)-4,5-difluoro-6-methoxybenzo[d]thiazole], with 4.3 nM; and `COc1cnc2c(-c3nc4c(Cl)c(F)c(OCCOC(=O)Nc5cncc(F)c5)cc4s3)cc(C)cc2n1` [Example 337, 2((4-chloro-5-fluoro-2-(2-methoxy-7-methylquinoxalin-5-yl)benzo[d]thiazol-6-yl)oxy)ethyl (5-fluoropyridin-3-yl)carbamate], with 0.7 nM.
